According to patent US11912701B2, “Protein kinase inhibitors for promoting liver regeneration or reducing or preventing hepatocyte death” (HEPAREGENIX GMBH, priority 2018, dated 2024):

Experiments:
MKK4 [1] = molecular target: T1, MKK4 (Homo sapiens, UniProt P45985); test: KINOMEscan competition binding assay, MKK4; conditions: residual percent of control binding (PoC) at 100 nM
T1 construct: S84/D399; host or cells: HEK-293
T1 sequence (P45985 84-399): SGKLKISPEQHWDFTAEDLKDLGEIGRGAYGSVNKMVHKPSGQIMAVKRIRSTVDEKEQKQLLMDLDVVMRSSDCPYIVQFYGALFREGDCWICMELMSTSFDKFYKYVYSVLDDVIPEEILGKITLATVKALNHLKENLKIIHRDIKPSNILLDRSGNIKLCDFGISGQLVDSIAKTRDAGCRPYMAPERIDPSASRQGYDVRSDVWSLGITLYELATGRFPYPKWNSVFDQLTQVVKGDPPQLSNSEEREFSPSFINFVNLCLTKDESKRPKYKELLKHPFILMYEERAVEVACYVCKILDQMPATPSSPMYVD
In short: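 KINOMEscan competition of compound versus immobilized ligand for DNA-tagged MKK4 expressed in HEK-293 cells. Bound kinase was quantified by qPCR after elution.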

BRaf = molecular target: T2, BRaf (Homo sapiens, UniProt P15056); test: KINOMEscan competition binding assay, BRaf; conditions: ratio PoC (off-target)/PoC (MKK4)
T2 construct: purchased ProQinase GmbH, Freiburg, Germany (33PanQinase Assay Service)
T2 sequence (P15056 whole entry, species assumed): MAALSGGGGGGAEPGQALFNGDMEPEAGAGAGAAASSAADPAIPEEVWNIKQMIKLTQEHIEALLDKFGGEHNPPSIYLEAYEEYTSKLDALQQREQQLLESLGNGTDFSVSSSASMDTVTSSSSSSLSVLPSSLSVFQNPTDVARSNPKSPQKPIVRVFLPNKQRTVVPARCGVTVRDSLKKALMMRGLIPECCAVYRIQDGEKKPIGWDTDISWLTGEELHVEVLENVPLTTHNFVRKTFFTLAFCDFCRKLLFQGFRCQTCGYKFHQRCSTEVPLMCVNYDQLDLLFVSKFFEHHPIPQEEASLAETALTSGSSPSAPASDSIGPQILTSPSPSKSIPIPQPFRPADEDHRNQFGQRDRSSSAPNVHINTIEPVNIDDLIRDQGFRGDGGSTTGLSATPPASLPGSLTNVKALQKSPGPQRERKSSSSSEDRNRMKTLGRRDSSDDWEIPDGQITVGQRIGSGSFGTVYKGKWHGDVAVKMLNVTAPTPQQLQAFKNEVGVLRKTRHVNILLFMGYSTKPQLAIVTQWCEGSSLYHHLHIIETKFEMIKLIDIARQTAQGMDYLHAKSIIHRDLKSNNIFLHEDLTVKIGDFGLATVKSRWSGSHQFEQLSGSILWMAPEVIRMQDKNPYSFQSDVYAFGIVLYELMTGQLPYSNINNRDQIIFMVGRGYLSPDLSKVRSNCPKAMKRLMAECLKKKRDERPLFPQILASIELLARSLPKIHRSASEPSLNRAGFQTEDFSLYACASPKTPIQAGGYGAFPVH
In short: (§1)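 DNA-tagged kinases expressed in HEK-293 cells compete between immobilized ligand on blocked beads and test compound at 100 nM; kinase retained on beads quantified by qPCR of the tag.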

MKK4 [2] = molecular target: T3, MKK4 (Homo sapiens, UniProt P45985); test: 33PanQinase enzyme assay, MKK4; type: biochemical; conditions: assay 'IC50'; read-out: Potency MKK4 (IC50)
T3 construct: purchased ProQinase GmbH, Freiburg, Germany (33PanQinase Assay Service)
T3 sequence (P45985 1-399): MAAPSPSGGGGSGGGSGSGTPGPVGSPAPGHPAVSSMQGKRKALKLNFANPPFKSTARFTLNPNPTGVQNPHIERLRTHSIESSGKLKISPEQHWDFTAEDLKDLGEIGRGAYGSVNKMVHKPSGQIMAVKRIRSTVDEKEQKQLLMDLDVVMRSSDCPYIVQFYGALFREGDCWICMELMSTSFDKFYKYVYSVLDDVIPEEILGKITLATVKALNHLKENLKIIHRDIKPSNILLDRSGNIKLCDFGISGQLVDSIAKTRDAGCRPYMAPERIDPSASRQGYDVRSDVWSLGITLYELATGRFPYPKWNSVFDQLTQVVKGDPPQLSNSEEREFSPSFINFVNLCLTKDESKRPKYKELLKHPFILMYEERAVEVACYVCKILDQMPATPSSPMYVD
In short: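 Radiometric 33PanQinase assay: kinase, substrate, ATP and compound in standard buffer, 60 min at 30 °C; 33Pi incorporation read by scintillation counting.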

MKK7 [3] = molecular target: T4, MKK7 (Homo sapiens, UniProt O14733); test: KINOMEscan competition binding assay, MKK7; design: M1/R419; host or cells: HEK-293; conditions: ratio PoC (off-target)/PoC (MKK4)
T4 sequence (O14733 1-419): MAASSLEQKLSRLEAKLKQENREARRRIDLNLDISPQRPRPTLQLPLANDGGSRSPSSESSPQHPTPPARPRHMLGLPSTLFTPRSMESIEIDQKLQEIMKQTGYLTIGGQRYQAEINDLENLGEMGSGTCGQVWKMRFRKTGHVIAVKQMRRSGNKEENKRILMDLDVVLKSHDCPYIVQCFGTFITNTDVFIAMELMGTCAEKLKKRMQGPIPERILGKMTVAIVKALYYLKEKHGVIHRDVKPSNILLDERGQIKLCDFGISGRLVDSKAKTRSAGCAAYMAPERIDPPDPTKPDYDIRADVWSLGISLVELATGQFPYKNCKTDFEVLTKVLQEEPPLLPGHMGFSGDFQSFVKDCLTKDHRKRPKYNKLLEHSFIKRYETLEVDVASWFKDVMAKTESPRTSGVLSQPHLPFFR
In short: as §1

JNK1 [4] = molecular target: T5, JNK1 (Homo sapiens, UniProt P45983); test: KINOMEscan competition binding assay, JNK1; design: M1/Q384; host or cells: HEK-293; conditions: ratio PoC (off-target)/PoC (MKK4)
In short: as §1
Target sequence in this assay (P45983 1-384 isoform P45983-2): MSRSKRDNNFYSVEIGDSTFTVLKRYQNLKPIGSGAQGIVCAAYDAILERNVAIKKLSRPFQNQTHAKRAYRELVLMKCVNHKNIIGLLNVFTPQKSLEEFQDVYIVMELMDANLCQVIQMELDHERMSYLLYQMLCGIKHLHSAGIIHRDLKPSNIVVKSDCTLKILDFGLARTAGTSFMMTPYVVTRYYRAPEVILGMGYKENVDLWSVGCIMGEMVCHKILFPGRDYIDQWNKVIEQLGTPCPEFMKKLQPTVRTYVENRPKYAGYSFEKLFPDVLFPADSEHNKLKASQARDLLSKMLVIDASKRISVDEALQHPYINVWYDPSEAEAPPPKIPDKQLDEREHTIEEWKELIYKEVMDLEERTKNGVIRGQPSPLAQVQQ

JNK1 [5] = molecular target: T5, JNK1; test: 33PanQinase enzyme assay, JNK1; type: biochemical; design: purchased ProQinase GmbH, Freiburg, Germany (33PanQinase Assay Service); conditions: ratio IC50(JNK1)/IC50(MKK4)
In short: (§2)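 Radiometric kinase reactions with ATP, test compound in DMSO and enzyme/substrate mix were incubated 60 min at 30 °C, stopped with 2% H3PO4 and washed; incorporated 33Pi was counted by scintillation. Single-concentration data are given as % residual activity; IC50 values come from least-squares curve fits.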
Target sequence in this assay (P45983 whole entry): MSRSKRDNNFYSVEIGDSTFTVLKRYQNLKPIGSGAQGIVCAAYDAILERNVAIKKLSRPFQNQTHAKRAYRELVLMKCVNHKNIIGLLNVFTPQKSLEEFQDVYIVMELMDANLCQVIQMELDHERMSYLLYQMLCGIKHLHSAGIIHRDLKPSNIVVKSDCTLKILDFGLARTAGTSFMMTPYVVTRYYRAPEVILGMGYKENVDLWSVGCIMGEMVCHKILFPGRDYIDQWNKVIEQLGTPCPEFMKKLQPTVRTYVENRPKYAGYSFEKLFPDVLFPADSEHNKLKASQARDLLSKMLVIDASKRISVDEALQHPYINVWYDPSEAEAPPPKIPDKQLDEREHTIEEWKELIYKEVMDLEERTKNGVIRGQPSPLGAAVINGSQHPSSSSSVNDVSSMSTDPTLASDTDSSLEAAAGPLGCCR

MKK7 [6] = molecular target: T4, MKK7; test: 33PanQinase enzyme assay, MKK7; type: biochemical; design: purchased ProQinase GmbH, Freiburg, Germany (33PanQinase Assay Service); conditions: ratio IC50(MKK7)/IC50(MKK4)
In short: as §2

| MKK4 [% Ctrl @ 100 nM (MKK4 [1]) | selectivity based on % Ctrl @100 nM vs. Braf (BRaf) | IC50 (MKK4 [2]) [nM] | selectivity based on % Ctrl @100 nM vs. MKK7 (MKK7 [3]) | selectivity based on % Ctrl @100 nM vs. JNK1 (JNK1 [4]) | Selectivity JNK1, IC50(off-target)/IC50(MKK4) (JNK1 [5]) | Selectivity IVIKK7, IC50(off-target)/IC50(MKK4) (MKK7 [6]) | Compound |
| --- | --- | --- | --- | --- | --- | --- | --- |
| + (3 ≤ PoC < 30) | ◯ (3 ≥ Ratio) | > 10000 | ++ (100 ≥ ratio > 10) | ++ (100 ≥ ratio > 10) | ◯ (3 ≥ IC50(off-target)/IC50(MKK4)) | ◯ (3 ≥ IC50(off-target)/IC50(MKK4)) | CCCS(=O)(=O)Nc1ccc(F)c(C(=O)c2c[nH]c3ncc(-c4cc[nH]c4)cc23)c1F [Example 100, N-(3-(5-(1H-pyrrol-3-yl)-1H-pyrrolo[2,3-b]pyridine-3-carbonyl)-2,4-difluorophenyl)propane-1-sulfonamide] |
| +++ (PoC < 1) | ++ (100 ≥ ratio > 10) | 100 to 1000 | +++ (Ratio > 100) | +++ (Ratio > 100) | ◯ (3 ≥ IC50(off-target)/IC50(MKK4)) | +++ (IC50(off-target)/IC50(MKK4) > 100) | CCCS(=O)(=O)Nc1ccc(F)c(C(=O)c2c[nH]c3ncc(C4CCC4)cc23)c1F [Example 123, N-(3-(5-cyclobutyl-1-pyrrolo[2,3-b]pyridine-3-carbonyl)-2,4-difluorophenyl)propane-1-sulfonamide] |
| +++ (PoC < 1) | +++ (Ratio > 100) | < 100 | +++ (Ratio > 100) | +++ (Ratio > 100) | +++ (IC50(off-target)/IC50(MKK4) > 100) | +++ (IC50(off-target)/IC50(MKK4) > 100) | CNc1ncc(-c2cnc3[nH]cc(C(=O)c4ccc(F)c(NS(=O)(=O)CCC(F)(F)F)c4F)c3c2)cn1 [Example 177, N-(2,6-difluoro-3-(5-(2-(methylamino)pyrimidin-5-yl)-1H-pyrrolo[2,3-b]pyridine-3-carbonyl)phenyl)-3,3,3-trifluoropropane-1-sulfonamide] |
| +++ (PoC < 1) | +++ (Ratio > 100) | < 100 | +++ (Ratio > 100) | +++ (Ratio > 100) | +++ (IC50(off-target)/IC50(MKK4) > 100) | +++ (IC50(off-target)/IC50(MKK4) > 100) | CN(C)c1ncc(-c2cnc3[nH]cc(C(=O)c4ccc(F)c(NS(=O)(=O)CCC(F)(F)F)c4F)c3c2)cn1 [Example 178, N-(3-(5-(2-(dimethylamino)pyrimidin-5-yl)-1H-pyrrolo[2,3-b]pyridine-3-carbonyl)-2,6-difluorophenyl)-3,3,3-trifluoropropane-1-sulfonamide] |

| Compound | MKK4 [% Ctrl @ 100 nM (MKK4 [1]) | selectivity based on % Ctrl @100 nM vs. Braf (BRaf) | IC50 (MKK4 [2]) [nM] | selectivity based on % Ctrl @100 nM vs. MKK7 (MKK7 [3]) | selectivity based on % Ctrl @100 nM vs. JNK1 (JNK1 [4]) | Selectivity JNK1, IC50(off-target)/IC50(MKK4) (JNK1 [5]) | Selectivity IVIKK7, IC50(off-target)/IC50(MKK4) (MKK7 [6]) |
| --- | --- | --- | --- | --- | --- | --- | --- |
| CCCS(=O)(=O)Nc1ccc(F)c(C(=O)c2c[nH]c3ncc(-c4c[nH]c(=O)cn4)cc23)c1F [Example 88, N-(2,4-difluoro-3-(5-(5-oxo-4,5-dihydropyrazin-2-yl)-1H-pyrrolo[2,3-b]pyridine-3-carbonyl)phenyl)propane-1-sulfonamide] | +++ (PoC < 1) | + (10 ≥ ratio > 3) | 100 to 1000 | +++ (Ratio > 100) | +++ (Ratio > 100) | ◯ (3 ≥ IC50(off-target)/IC50(MKK4)) | ++ (100 ≥ IC50(off-target)/IC50(MKK4) > 10) |
| CS(=O)(=O)Nc1c(F)ccc(C(=O)c2c[nH]c3ncc(-c4cccnc4)cc23)c1F [Example 228, N-(2,6-difluoro-3-(5-(pyridin-3-yl)-1H-pyrrolo[2,3-b]pyridine-3-carbonyl)phenyl)methanesulfonamide] | +++ (PoC < 1) | +++ (Ratio > 100) | 100 to 1000 | +++ (Ratio > 100) | +++ (Ratio > 100) | ++ (100 ≥ IC50(off-target)/IC50(MKK4) > 10) | ++ (100 ≥ IC50(off-target)/IC50(MKK4) > 10) |
